Drawing on PMC7851572, “A Pichia biosensor for high‐throughput analyses of compounds that can influence mosquito behavior” (MicrobiologyOpen, 2020), this text covers EC50 for one molecule.

The test concerns the target T1, olfactory receptor co-receptor (Orco) (Anopheles gambiae, UniProt Q7QCC7).
T1 construct: codon-optimized Orco cDNA in pPICZA (C-terminal c-myc tag detected), expressed in Pichia pastoris GS115
T1 sequence (Q7QCC7 1-478): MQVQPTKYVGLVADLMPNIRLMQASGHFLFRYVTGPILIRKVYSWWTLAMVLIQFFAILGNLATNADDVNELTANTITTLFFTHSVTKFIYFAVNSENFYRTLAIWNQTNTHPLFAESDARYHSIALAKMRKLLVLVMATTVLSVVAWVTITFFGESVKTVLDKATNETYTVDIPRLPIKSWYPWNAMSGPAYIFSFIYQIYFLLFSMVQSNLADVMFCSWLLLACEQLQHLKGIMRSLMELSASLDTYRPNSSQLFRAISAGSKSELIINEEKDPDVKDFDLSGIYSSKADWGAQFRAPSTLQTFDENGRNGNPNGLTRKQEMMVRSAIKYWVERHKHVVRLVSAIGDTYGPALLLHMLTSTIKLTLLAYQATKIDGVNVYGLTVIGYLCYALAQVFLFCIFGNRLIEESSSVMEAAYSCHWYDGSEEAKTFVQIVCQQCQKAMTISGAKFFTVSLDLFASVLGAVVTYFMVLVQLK
In words: fluo-4-AM calcium influx assay in Pichia pastoris expressing Orco, compared with GS115 control cells ([…] extracellular Ca2+). It is filed as cell-based.

As a reminder, the EC50 is the concentration needed to bring the measured effect to its halfway point. For the molecule `CCc1ccc(NC(=O)CSc2nnc(-c3cccnc3)n2CC)cc1` [VUAA1, 2‐(4‐ethyl‐5‐(pyridin‐3‐yl)‐4H‐1,2,4‐triazol‐3‐ylthio)‐N‐(4‐ethylphenyl)acetamide], the half-maximal effective concentration (EC50) turned out to be 410 µM.
